{"source": "paper PMC7617459", "about": "“Comparative Evaluation and Profiling of Chemical Tools for the Nuclear Hormone Receptor Family 2” (ACS pharmacology & translational science, 2025)", "key": {"[1]": {"system": "NR2F1-regulated genes SOX9, RARβ, and p27", "set-up": "method as in PMID 34812843", "settings": "chicken embryo chorioallantoic membrane tumors; cited from earlier work"}, "NR2F1 [2]": {"system": "NR2F1", "set-up": "method as in PMID 34812843", "settings": "T-Hep3 cells on chicken embryo chorioallantoic membrane; cited from earlier work"}, "PNR (NR2E3)": {"target": "T1, PNR (NR2E3) (Homo sapiens, UniProt Q9Y5X4)", "T1 construct": "encoding the hinge region and the LBD of the canonical isoform of the respective human nuclear receptors; expressed in transfected cells; host or cells: HEK293T", "T1 sequence (Q9Y5X4 169-410 limits assumed)": "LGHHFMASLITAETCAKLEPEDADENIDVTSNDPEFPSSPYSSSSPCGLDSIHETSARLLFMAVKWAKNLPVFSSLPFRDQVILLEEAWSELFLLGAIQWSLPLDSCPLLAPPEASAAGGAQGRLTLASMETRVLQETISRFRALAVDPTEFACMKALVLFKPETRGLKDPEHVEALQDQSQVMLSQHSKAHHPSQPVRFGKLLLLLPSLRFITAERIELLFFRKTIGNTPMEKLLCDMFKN", "experiment": "Gal4-hybrid reporter gene assay PNR", "format": "cell-based", "settings": "selected test concentration (Figure 3)", "experimental": "Gal4-hybrid reporter gene assays were performed as described previously using the plasmids pFA-CMV-hTHRα-LBD,[170] pFA-CMV-hRARα-LBD,[171] pFA-CMV-hPPARα-LBD,[172] pFA-CMV-hPPARγ-LBD,[172] pFA-CMV-hPPARδ-LBD,[172] pFA-CMV-revERBα-LBD,[158] pFA-CMV-hRORα-LBD,[173] pFA-CMV-hLXRα-LBD,[118] pFA-CMV-hFXR-LBD,[174] pFA-CMV-hVDR-LBD,[171] pFA-CMV-hCAR-LBD,[171] pFA-CMV-hHNF4α-LBD,[110] pFA-CMV-hRXRα-LBD,[175] pFA-CMV-hTR2-LBD,[102] pFA-CMV-hTR4-LBD,[102] pFA-CMV-hTLX-LBD,[102] pFA-CMV-hNR2E3-LBD,[102] pFA-CMV-hNur77-LBD,[176] pFA-CMV-hSF1-LBD[158] encoding the hinge region and the LBD of the canonical isoform of the respective human nuclear receptors. pFR-Luc (Stratagene, La Jolla, CA, USA) was used as a reporter plasmid, and pRL-SV40 (Promega, Madison, WI, USA) was used for normalization of transfection efficiency and cell growth. HEK293T cells (German Collection of Microorganisms and Cell Culture GmbH, DSMZ) were cultured in Dulbecco’s modified Eagle’s medium (DMEM), high glucose supplemented with 10% fetal calf serum (FCS), sodium pyruvate (1 mM), penicillin (100 U/mL), and streptomycin (100 μg/mL) at 37 °C and 5% CO2 and seeded in 96-well plates (3 × 10^4 cells/well). The medium was changed to Opti-MEM without supplements, and the cells were transiently transfected with one pFA-CMV-hNR-LBD clone, pFR-Luc, and pRL-SV40 using Lipofectamine LTX reagent (Invitrogen, Thermo Fisher Scientific) according to the manufacturer’s instructions. Five hours after transfection, cells were incubated with the test compounds in Opti-MEM supplemented with penicillin (100 U/mL), streptomycin (100 μg/mL), and 0.1% DMSO. Each sample was set up in duplicates and tested in at least three independent experiments. After 16 h incubation, luciferase activity was measured using the Dual-Glo Luciferase Assay System (Promega) according to the manufacturer’s protocol on a Tecan Spark luminometer (Tecan Deutschland GmbH, Crailsheim, Germany). Firefly luminescence was divided by Renilla luminescence and multiplied by 1000 resulting in relative light units (RLUs) to normalize for transfection efficiency and cell growth. Fold activation was obtained by dividing the mean RLU of the test compound by the mean^a RLU of the untreated control, and relative activation was calculated by dividing the fold activation of a test sample by the fold activation of the respective reference agonist. Antagonistic effects were evaluated by coincubation of the test compound with the respective reference ligand."}, "NR2F1 [3]": {"system": "NR2F1", "set-up": "method as in PMID 34812843", "settings": "cited from earlier work"}, "[4]": {"system": "head and neck squamous-cell carcinoma (HNSCC)", "set-up": "method as in PMID 34812843", "settings": "mice; cited from earlier work"}, "TR2": {"target": "T2, TR2 (Homo sapiens, UniProt P13056)", "T2 construct": "encoding the hinge region and the LBD of the canonical isoform of the respective human nuclear receptors; expressed in transfected cells; host or cells: HEK293T", "T2 sequence (P13056 348-590 limits assumed)": "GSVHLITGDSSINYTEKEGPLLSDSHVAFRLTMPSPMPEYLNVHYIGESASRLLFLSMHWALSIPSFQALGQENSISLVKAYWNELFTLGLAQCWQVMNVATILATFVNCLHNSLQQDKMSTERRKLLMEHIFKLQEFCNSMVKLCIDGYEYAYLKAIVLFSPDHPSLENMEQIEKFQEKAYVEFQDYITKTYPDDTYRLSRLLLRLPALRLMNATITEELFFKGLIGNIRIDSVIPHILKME", "experiment": "Gal4-hybrid reporter gene assay TR2", "format": "cell-based", "settings": "1 µM", "experimental": "(§1) Gal4-hybrid reporter gene assays were performed as described previously using the plasmids pFA-CMV-hTHRα-LBD,[170] pFA-CMV-hRARα-LBD,[171] pFA-CMV-hPPARα-LBD,[172] pFA-CMV-hPPARγ-LBD,[172] pFA-CMV-hPPARδ-LBD,[172] pFA-CMV-revERBα-LBD,[158] pFA-CMV-hRORα-LBD,[173] pFA-CMV-hLXRα-LBD,[118] pFA-CMV-hFXR-LBD,[174] pFA-CMV-hVDR-LBD,[171] pFA-CMV-hCAR-LBD,[171] pFA-CMV-hHNF4α-LBD,[110] pFA-CMV-hRXRα-LBD,[175] pFA-CMV-hTR2-LBD,[102] pFA-CMV-hTR4-LBD,[102] pFA-CMV-hTLX-LBD,[102] pFA-CMV-hNR2E3-LBD,[102] pFA-CMV-hNur77-LBD,[176] pFA-CMV-hSF1-LBD[158] encoding the hinge region and the LBD of the canonical isoform of the respective human nuclear receptors. pFR-Luc (Stratagene, La Jolla, CA, USA) was used as a reporter plasmid, and pRL-SV40 (Promega, Madison, WI, USA) was used for normalization of transfection efficiency and cell growth. […] After 16 h incubation, luciferase activity was measured using the Dual-Glo Luciferase Assay System (Promega) according to the manufacturer’s protocol on a Tecan Spark luminometer (Tecan Deutschland GmbH, Crailsheim, Germany). Firefly luminescence was divided by Renilla luminescence and multiplied by 1000 resulting in relative light units (RLUs) to normalize for transfection efficiency and cell growth. […] Antagonistic effects were evaluated by coincubation of the test compound with the respective reference ligand."}, "TR4": {"target": "T3, TR4 (Homo sapiens, UniProt P49116)", "T3 construct": "encoding the hinge region and the LBD of the canonical isoform of the respective human nuclear receptors; expressed in transfected cells; host or cells: HEK293T", "T3 sequence (P49116 341-583 limits assumed)": "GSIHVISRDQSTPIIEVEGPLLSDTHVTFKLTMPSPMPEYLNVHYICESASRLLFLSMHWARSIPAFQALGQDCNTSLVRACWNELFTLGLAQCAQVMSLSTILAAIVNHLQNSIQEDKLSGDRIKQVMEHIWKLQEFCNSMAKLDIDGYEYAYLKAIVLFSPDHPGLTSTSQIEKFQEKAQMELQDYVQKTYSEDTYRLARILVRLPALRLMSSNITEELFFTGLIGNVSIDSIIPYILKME", "experiment": "Gal4-hybrid reporter gene assay TR4", "format": "cell-based", "settings": "1 µM", "experimental": "as §1"}, "RXRα [5]": {"system": "RXRα", "settings": "reporter gene assay; read-out: RXRα cellular activity/potency; cited from earlier work"}, "RXRγ": {"system": "RXRγ", "settings": "reporter gene assay; read-out: RXRγ cellular activity/potency; cited from earlier work"}, "RXRβ": {"system": "RXRβ", "settings": "reporter gene assay; read-out: RXRβ cellular activity/potency; cited from earlier work"}, "RXRα [6]": {"target": "T4, RXRα (Homo sapiens, UniProt P19793)", "T4 sequence (P19793 227-458 limits assumed)": "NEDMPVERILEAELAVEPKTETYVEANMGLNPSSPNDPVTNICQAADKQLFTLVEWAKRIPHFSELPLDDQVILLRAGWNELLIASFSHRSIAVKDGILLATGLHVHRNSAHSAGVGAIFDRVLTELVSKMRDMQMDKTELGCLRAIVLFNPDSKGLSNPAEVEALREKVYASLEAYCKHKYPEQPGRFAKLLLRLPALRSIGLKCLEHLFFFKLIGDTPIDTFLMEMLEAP", "experiment": "Gal4-hybrid reporter gene assay RXRα", "settings": "1 µM"}, "[7]": {"system": "COUP-TF2 target genes FOXM1 and CDK1", "set-up": "method as in PMID 32494682", "settings": "prostate cancer cells; cited from earlier work"}, "[8]": {"system": "HNF4α, RXRα, PPARα, LXRα, GR, PR, ER, RAR, RORγ, AR, and COUP-TF1", "set-up": "method as in PMID 32494682", "settings": "cited from earlier work"}, "prostate cancer tumor": {"system": "prostate cancer tumor", "set-up": "method as in PMID 32494682", "settings": "xenograft mouse model, 2.6 mg/kg; cited from earlier work"}, "COUP-TF2": {"system": "COUP-TF2", "set-up": "method as in PMID 32494682", "settings": "reporter gene assay; cited from earlier work"}}, "data": [{"smiles": "CCSc1nnc2n(CCc3ccccc3)c(=O)c3c(n12)-c1ccccc1CC31CCCCC1", "note": "[compound 26]", "values": [{"measurement": "expression of NR2F1-regulated genes SOX9, RARβ, and p27", "setting": "[1]", "result": "induced expression"}, {"measurement": "increase in NR2F1 mRNA", "setting": "NR2F1 [2]", "result": 2.3, "unit": "fold"}, {"measurement": "increase in NR2F1 protein levels", "setting": "NR2F1 [2]", "result": 10, "unit": "fold"}, {"measurement": "PNR modulation", "setting": "PNR (NR2E3)", "result": "confirmed albeit with rather low efficacy"}, {"measurement": "fold activation @ 0.1 μM", "setting": "NR2F1 [3]; reporter gene assay, 0.1 μM", "result": 2.4, "unit": "f.A."}, {"measurement": "fold activation @ 1 μM", "setting": "NR2F1 [3]; reporter gene assay, 1 μM", "result": 1.9, "unit": "f.A."}, {"measurement": "EC50", "setting": "NR2F1 [3]; reporter gene assay, two cell lines", "result": "500 to 1000", "unit": "nM"}, {"measurement": "enhancement of reporter activity", "setting": "NR2F1 [3]; two cell lines", "result": "approximately two-fold"}, {"measurement": "tumor growth and metastasis of HNSCC", "setting": "[4]", "result": "inhibited tumor growth and metastasis"}]}, {"smiles": "CC1(C)CCC(C)(C)c2cc(C3(c4ccc(C(=O)O)cc4)OCCO3)ccc21", "note": "[compound 11]", "values": [{"measurement": "TR2 off-target activity", "setting": "TR2", "result": "off-target activities"}, {"measurement": "TR4 off-target activity", "setting": "TR4", "result": "off-target activities"}, {"measurement": "EC50", "setting": "RXRα [5]", "result": 29, "unit": "nM"}, {"measurement": "EC50", "setting": "RXRγ", "result": 232, "unit": "nM"}, {"measurement": "PNR modulation", "setting": "PNR (NR2E3)", "result": "off-target activities"}, {"measurement": "EC50", "setting": "RXRβ", "result": 98, "unit": "nM"}, {"measurement": "RXR activation", "setting": "RXRα [6]", "result": "strong RXR activation"}]}, {"smiles": "COc1ccc(CCNc2ncnc3sc(C)cc23)cc1OC", "note": "[compound 27]", "values": [{"measurement": "expression of COUP-TF2 target genes FOXM1 and CDK1", "setting": "[7]", "result": "altered expression"}, {"measurement": "interaction with related NRs in pulldown assay", "setting": "[8]", "result": "no relevant interaction"}, {"measurement": "prostate cancer tumor growth and angiogenesis", "setting": "prostate cancer tumor", "result": "inhibited prostate cancer tumor growth and angiogenesis"}, {"measurement": "IC50", "setting": "COUP-TF2", "result": 3200, "unit": "nM"}]}]}
